“Also recorded” adds a separate entry of the source. No end group written: not given here.
Tests used:
Format in all cases: cell-based
Jurkat T cells [1] = test: hGal-7-induced apoptosis of Jurkat T cells, PARP-1 cleavage (Western blot); conditions: hGal-7 pre-incubated with peptide, then Jurkat cells 4 h at 37°C, serum-free RPMI, Supplementary Fig. S3: peptide 200 μM
Method: (§1) Apoptosis was measured by Western blot analysis of PARP-1 cleavage. The PACAP28–38 was used as a control. β-actin was used as a loading control. B. Flow cytometric analysis of Jurkat T cells with stained Annexin V (FL1) and propidium iodide-PI (FL3) following binding of recombinant hGal-7 with or without hGal-7(129–135). Cells in the lower right quadrant are representative of annexin V-positive/PI-negative, or early apoptotic cells. Cells in the upper right quadrant indicate annexin V-positive/PI-positive, or late apoptotic cells. C. Histogram showing the percentages of annexin V-positive Jurkat T cells obtained by adding the percentages of cells found in the lower and upper right quadrants. Results are representative of three independent experiments. Error bars represent standard deviation.
For the apoptosis tests, whole-cell extracts were homogenized and resuspended in RIPA buffer (Thermo Fisher Scientific, Rockford, IL, USA) containing protease inhibitors (Roche, Laval, QC, Canada). Equal amounts of whole-cell extracts (25 μg) were separated on SDS-PAGE and transferred onto nitrocellulose membranes (Bio-Rad Laboratories). The membranes were first blocked with 5% milk [w/v] in TBS/0.5% Tween 20 [v/v] for 1 h at room temperature and subsequently blotted overnight in a solution of TBS containing 3% BSA [w/v] and 0.5% Tween 20 [v/v]. The following antibodies were used: a rabbit anti-poly-(ADP-ribose) polymerase (PARP)-1 (p25) polyclonal antibody (1:5000; Epitomics, Burlingame, CA, USA) and a mouse anti-β-actin (1:10000; Sigma-Aldrich, St. Louis, MO, USA). Secondary antibodies consisted of horseradish peroxidase-conjugated donkey anti-rabbit (GE Healthcare, Buckinghamshire, England) and sheep anti-mouse (GE Healthcare) IgG. Detection was performed using the enhanced chemiluminescence method (GE Healthcare). […]
concentrations of recombinant human gaI-7 were pre-incubated with the hGaI-7129–135 (200 μM) prior to its addition to A. Jurkat T cells or B. PBMCs. Apoptosis wa, measured after 4 h at 37°C in serum·free conditions. […]

Jurkat T cells [2] = test: hGal-7-induced apoptosis of Jurkat T cells, Annexin V/PI flow cytometry; conditions: hGal-7 and peptide pre-incubated 1 h at 4°C, cells 4 h at 37°C, serum free RPMI 1640, three independent experiments
Method: as §1
(§2) Apoptosis was measured by flow cytometry using FITC-labeled Annexin V (Biolegend, San Diego, CA, USA) and propidium iodide (PI). Briefly, the corresponding dilutions of recombinant hGal-7 and hGal-7(129–135) peptides were pre-incubated for 1 h at 4°C in serum free RPMI 1640 medium. 2.5 × 10^5 Jurkat cells were then harvested in the same medium and incubated with their corresponding dilutions at 37°C for 4 h. Cells were washed once in PBS and once in binding buffer (0.01 M HEPES, 0.14 M NaCl, 2.5 mM CaCl2, pH 7.4). Cells were then incubated for 15 min with Annexin V in the dark at room temperature. A total of 400 μL of binding buffer containing 0.25 μg/mL propidium iodide was added to the cells before analysis by flow cytometry.

Jurkat T cells [3] = test: Apoptosis/toxicity of peptide alone on Jurkat T cells; conditions: for apoptosis induced by peptide alone in Jurkat T cells: 4 h at 37°C, Annexin V/PI two-color flow cytometry, three independent experiments
Method: as §2
Supplementary Figure S4: Inability of the control peptide (PACAP) to induce apoptosis on Jurkat T cells. Jurkat T cells wee incubated 4 h at 37°C with increasing concentrations of the control peptide PACAP before two-color flow cytometric analysis. On the left histograms, cells in the lower right quadrant are representative of annexin V-positive/PI-negative, or early apoptotic cells. Cells in the upper right quadrant indicate annexin V-positive/PI-positive, or late apoptotic cells. The right histograms show the percentages of annexin V-positive Jurkat T cells obtained by adding the percentages of cells found in the lower and upper right quadrants. Results are representative of three independent experiments. Error bars represent standard deviation.
(also on this page, place not known: www.impactjournals.com/oncotarget/ Oncotarget, Materials 2015 Supplementary) […]

## PACAP(28–38): an inactive fragment of the human Pituitary Adenylate Cyclase-Activating Polypeptide (PACAP) (GKRYKQRVKNK-NH2; ends and bridges not checked; UniProt P18509 159-169, looked up, fragment)
Jurkat T cells [1]
  inhibition of hGal-7-induced apoptosis in Jurkat T cells (PARP-1 cleavage): No such effect was observed with the control peptide
Jurkat T cells [2]
  hGal-7-induced apoptosis of Jurkat T cells (Annexin V/PI): a slight increase in apoptosis is observed
Jurkat T cells [3]
  toxicity of peptide alone on Jurkat T cells: did not display any toxicity on Jurkat T cells alone; also recorded: minimal toxicity on the cell line
  apoptosis induced by peptide alone in Jurkat T cells: did not induce apoptosis in Jurkat T cells; also recorded: does not induce apoptosis
Jurkat T cells [3]; listed as PACAP
  apoptosis induced by peptide alone in Jurkat T cells: Inability

## H-LDSVRIP-NH2 [hGal-7(129–135), peptide corresponding to hGal-7 segment between residues 129–135]
Jurkat T cells [1]
  inhibition of hGal-7-induced apoptosis in Jurkat T cells (PARP-1 cleavage): inhibited the ability of hGal-7 to induce apoptosis in Jurkat T cells; also recorded: dose-dependent
Jurkat T cells [1]; listed as hGaI-7129–135
  inhibition of hGal-7-induced apoptosis in Jurkat T cells (PARP-1 cleavage): decreases gaI-7-induced apoptosis
Jurkat T cells [2]
  hGal-7-induced apoptosis of Jurkat T cells (Annexin V/PI): This effect on apoptosis was confirmed by flow cytomtery
Jurkat T cells [2]; listed as hGal-7 (129–135)
  hGal-7-induced apoptosis of Jurkat T cells (Annexin V/PI): Apoptotic levels of Jurkat T cells induced by hGal-7 were decreased
Jurkat T cells [3]
  apoptosis induced by peptide alone in Jurkat T cells: did not induce apoptosis in Jurkat T cells

— publication PMC4747383, “Design of a peptidic inhibitor that targets the dimer interface of a prototypic galectin” (Oncotarget, 2015)
